# Tests used:
# CXCR4 H203A = target: T1, CXCR4 H203A (Homo sapiens, UniProt P61073, H203A); test: Competitive binding to CXCR4 mutant H203A (12G5, CHO cells); conditions: TM5, class of reduction vs wild-type CXCR4, 12G5 competition, averages of at least three independent experiments
# T1 construct: expressed in transfected cells
# Method: (§1) Plasmid pcDNA3-CXCR4 and mutated pcDNA3-CXCR4 were extracted and transfected into CHO cells using Lipofectamine 2000 according to the manufacturer’s guidelines. The selective medium containing G418 at a concentration of 1.2 mg/ml was applied to isolate stably transfected cells. CHO cells expressing wild-type CXCR4 and mutant CXCR4 were obtained using fluorescence-activated cell sorting (FACS).
# (§2) All of the CXCR4 mutants were prepared using PCR technology. Briefly, pairs of asymmetrical primers containing the desired amino acid mutations (Supplementary Tables S1 and S2), each complementary to opposite strands of the pcDNA3–CXCR4, were designed for amplification by Q5® High-Fidelity DNA polymerase and the generation of mutated constructs. The methylated pcDNA3–CXCR4 templates were digested by DpnI. The mutated pcDNA3–CXCR4 was transformed into competent E. coli TOP10 for long-term storage and amplification.
# (§3) The procedure for the CXCR4 competitive binding experiments was published previously. Briefly, CXCR4 antibody 12G5 (250 ng/ml) was incubated with 5 × 10^5 cells and varying concentrations of unlabeled compounds in a final volume of 100 μl of assay buffer (PBS with 0.5% BSA and 0.05% NaN3) in 96-well plates for 40 min on ice, after being washed with assay buffer once. The cells were incubated with FITC-conjugated second antibody IgG for 30 min on ice, then washed with assay buffer three times. The fluorescence intensity was measured for excitation at 485 nm and emission at 535 nm using multimode plate reader (PerkinElmer). The IC50 values were calculated using graphpad Prism 7. Experiments were performed at least three times.
# CXCR4 Y116A = target: T2, CXCR4 Y116A (Homo sapiens, UniProt P61073, Y116A); test: Competitive binding to CXCR4 mutant Y116A (12G5, CHO cells); conditions: TM3, class of reduction vs wild-type CXCR4, 12G5 competition, averages of at least three independent experiments
# T2 construct: expressed in transfected cells
# T2 sequence (P61073 whole entry Y116A): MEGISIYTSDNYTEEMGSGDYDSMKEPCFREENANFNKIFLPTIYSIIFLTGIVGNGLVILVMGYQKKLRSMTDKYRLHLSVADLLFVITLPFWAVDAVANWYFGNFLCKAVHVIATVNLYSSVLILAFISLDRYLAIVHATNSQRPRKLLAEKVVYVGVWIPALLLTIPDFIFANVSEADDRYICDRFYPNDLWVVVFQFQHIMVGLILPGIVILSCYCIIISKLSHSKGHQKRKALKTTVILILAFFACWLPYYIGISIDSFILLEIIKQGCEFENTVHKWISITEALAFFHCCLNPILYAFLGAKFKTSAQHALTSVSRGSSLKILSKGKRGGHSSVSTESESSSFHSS
# Method: as §1, §2, §3
# CXCR4 I284A = target: T3, CXCR4 I284A (Homo sapiens, UniProt P61073, I284A); test: Competitive binding to CXCR4 mutant I284A (12G5, CHO cells); conditions: TM7, class of reduction vs wild-type CXCR4, 12G5 competition, averages of at least three independent experiments
# T3 construct: expressed in transfected cells
# T3 sequence (P61073 whole entry I284A): as the sequence (P61073 whole entry Y116A) above, with A116Y, I284A counted along it
# Method: as §1, §2, §3
# CXCR4 W252A = target: T4, CXCR4 W252A (Homo sapiens, UniProt P61073, W252A); test: Competitive binding to CXCR4 mutant W252A (12G5, CHO cells); conditions: TM6, class of reduction vs wild-type CXCR4, 12G5 competition, averages of at least three independent experiments
# T4 construct: expressed in transfected cells
# T4 sequence (P61073 whole entry W252A): as the sequence (P61073 whole entry Y116A) above, with A116Y, W252A counted along it
# Method: as §1, §2, §3
# CXCR4 Q200A = target: T5, CXCR4 Q200A (Homo sapiens, UniProt P61073, Q200A); test: Competitive binding to CXCR4 mutant Q200A (12G5, CHO cells); design: key to the marks not given beside the values; conditions: TM5, class of reduction vs wild-type CXCR4, 12G5 competition, averages of at least three independent experiments
# T5 construct: expressed in transfected cells
# T5 sequence (P61073 whole entry Q200A): as the sequence (P61073 whole entry Y116A) above, with A116Y, Q200A counted along it
# Method: as §1, §2, §3
# CXCR4 [1] = conditions: previous studies by others; read-out: IC50, inhibition of calcium mobilization; cited from earlier work
# Source text: (§4) To understand the receptor–ligand recognition mechanism involving CXCR4 and its antagonists, here in this study we conducted a series of comparative analyses of the biological activities and CXCR4 binding sites of eleven known CXCR4 antagonists, including the three mentioned above, using cell-based bioassays, CXCR4 site-directed mutagenesis and computer-aided molecular modeling.
# CXCR4 H113A = target: T6, CXCR4 H113A (Homo sapiens, UniProt P61073, H113A); test: Competitive binding to CXCR4 mutant H113A (12G5, CHO cells); conditions: TM3, class of reduction vs wild-type CXCR4, 12G5 competition, averages of at least three independent experiments
# T6 construct: expressed in transfected cells
# T6 sequence (P61073 whole entry H113A): as the sequence (P61073 whole entry Y116A) above, with H113A, A116Y counted along it
# Method: as §1, §2, §3
# CXCR4 [2] = conditions: cited from earlier work
# Source text: as §4, with “modeling. These antagonists studied here were chosen from different representative structural types including both D-peptides (i.e., HC4319, DV1, DV1 dimer, and DV3) and a representative counterpart L-peptide (i.e., V1) derived ...” for “modeling.”
# CXCR4 N119A = target: T7, CXCR4 N119A (Homo sapiens, UniProt P61073, N119A); test: Competitive binding to CXCR4 mutant N119A (12G5, CHO cells); conditions: TM3, class of reduction vs wild-type CXCR4, 12G5 competition, averages of at least three independent experiments
# T7 construct: expressed in transfected cells
# T7 sequence (P61073 whole entry N119A): as the sequence (P61073 whole entry Y116A) above, with A116Y, N119A counted along it
# Method: as §1, §2, §3
# CXCR4 D171A = target: T8, CXCR4 D171A (Homo sapiens, UniProt P61073, D171A); test: Competitive binding to CXCR4 mutant D171A (12G5, CHO cells); conditions: TM4, class of reduction vs wild-type CXCR4, 12G5 competition, averages of at least three independent experiments
# T8 construct: expressed in transfected cells
# T8 sequence (P61073 whole entry D171A): as the sequence (P61073 whole entry Y116A) above, with A116Y, D171A counted along it
# Method: as §1, §2, §3
# CXCR4 T117A = target: T9, CXCR4 T117A (Homo sapiens, UniProt P61073, T117A); test: Competitive binding to CXCR4 mutant T117A (12G5, CHO cells); conditions: TM3, class of reduction vs wild-type CXCR4, 12G5 competition, averages of at least three independent experiments
# T9 construct: expressed in transfected cells
# T9 sequence (P61073 whole entry T117A): as the sequence (P61073 whole entry Y116A) above, with A116Y, T117A counted along it
# Method: as §1, §2, §3
# CXCR4 D97A = target: T10, CXCR4 D97A (Homo sapiens, UniProt P61073, D97A); test: Competitive binding to CXCR4 mutant D97A (12G5, CHO cells); conditions: TM2, class of reduction vs wild-type CXCR4, 12G5 competition, averages of at least three independent experiments
# T10 construct: expressed in transfected cells
# T10 sequence (P61073 whole entry D97A): as the sequence (P61073 whole entry Y116A) above, with D97A, A116Y counted along it
# Method: as §1, §2, §3
# CXCR4 F87A = target: T11, CXCR4 F87A (Homo sapiens, UniProt P61073, F87A); test: Competitive binding to CXCR4 mutant F87A (12G5, CHO cells); conditions: TM2, class of reduction vs wild-type CXCR4, 12G5 competition, averages of at least three independent experiments
# T11 construct: expressed in transfected cells
# T11 sequence (P61073 whole entry F87A): as the sequence (P61073 whole entry Y116A) above, with F87A, A116Y counted along it
# Method: as §1, §2, §3
# CXCR4 H281A = target: T12, CXCR4 H281A (Homo sapiens, UniProt P61073, H281A); test: Competitive binding to CXCR4 mutant H281A (12G5, CHO cells); conditions: TM7, class of reduction vs wild-type CXCR4, 12G5 competition, averages of at least three independent experiments
# T12 construct: expressed in transfected cells
# T12 sequence (P61073 whole entry H281A): as the sequence (P61073 whole entry Y116A) above, with A116Y, H281A counted along it
# Method: as §1, §2, §3
# CXCR4 I259A = target: T13, CXCR4 I259A (Homo sapiens, UniProt P61073, I259A); test: Competitive binding to CXCR4 mutant I259A (12G5, CHO cells); design: key to the marks not given beside the values; conditions: TM6, class of reduction vs wild-type CXCR4, 12G5 competition, averages of at least three independent experiments
# T13 construct: expressed in transfected cells
# T13 sequence (P61073 whole entry I259A): as the sequence (P61073 whole entry Y116A) above, with A116Y, I259A counted along it
# Method: as §1, §2, §3
# CXCR4 D262N = target: T14, CXCR4 D262N (Homo sapiens, UniProt P61073, D262N); test: Competitive binding to CXCR4 mutant D262N (12G5, CHO cells); conditions: TM6, class of reduction vs wild-type CXCR4, 12G5 competition, averages of at least three independent experiments
# T14 construct: expressed in transfected cells
# T14 sequence (P61073 whole entry D262N): as the sequence (P61073 whole entry Y116A) above, with A116Y, D262N counted along it
# Method: as §1, §2, §3
# CXCR4 W94A = target: T15, CXCR4 W94A (Homo sapiens, UniProt P61073, W94A); test: Competitive binding to CXCR4 mutant W94A (12G5, CHO cells); conditions: TM2, class of reduction vs wild-type CXCR4, 12G5 competition, averages of at least three independent experiments
# T15 construct: expressed in transfected cells
# T15 sequence (P61073 whole entry W94A): as the sequence (P61073 whole entry Y116A) above, with W94A, A116Y counted along it
# Method: as §1, §2, §3
# T1 sequence (P61073 whole entry H203A): as the sequence (P61073 whole entry Y116A) above, with A116Y, H203A counted along it
SMILES,"Competitive receptor binding activity, CXCR4 H203A (CXCR4 H203A)","Competitive receptor binding activity, CXCR4 Y116A (CXCR4 Y116A)","Competitive receptor binding activity, CXCR4 I284A (CXCR4 I284A)","Competitive receptor binding activity, CXCR4 W252A (CXCR4 W252A)","Competitive receptor binding activity, CXCR4 Q200A (CXCR4 Q200A)",IC50 (CXCR4 [1]) [nM],"Competitive receptor binding activity, CXCR4 H113A (CXCR4 H113A)",Potency (in words) (CXCR4 [2]),"Competitive receptor binding activity, CXCR4 N119A (CXCR4 N119A)","Competitive receptor binding activity, CXCR4 D171A (CXCR4 D171A)","Competitive receptor binding activity, CXCR4 T117A (CXCR4 T117A)","Competitive receptor binding activity, CXCR4 D97A (CXCR4 D97A)","Competitive receptor binding activity, CXCR4 F87A (CXCR4 F87A)","Competitive receptor binding activity, CXCR4 H281A (CXCR4 H281A)","Competitive receptor binding activity, CXCR4 I259A (CXCR4 I259A)","Competitive receptor binding activity, CXCR4 D262N (CXCR4 D262N)","Competitive receptor binding activity, CXCR4 W94A (CXCR4 W94A)"
c1cc(CN2CCCNCCNCCCNCC2)ccc1CN1CCCNCCNCCCNCC1 [AMD3100],+++,++ (10–29% reduction compared with wild-type CXCR4),+++,+++,+++,[…],++ (10–29% reduction compared with wild-type CXCR4),submicromolar,+++,+ (30–60% reduction compared with wild-type CXCR4),+++,++ (10–29% reduction compared with wild-type CXCR4),++ (10–29% reduction compared with wild-type CXCR4),+++,+++,,
NCCCCN(Cc1nc2ccccc2[nH]1)[C@H]1CCCc2cccnc21 [AMD11070],+++,+++,+++,+++,+++,9,+ (30–60% reduction compared with wild-type CXCR4),nanomolar potent,+++,+ (30–60% reduction compared with wild-type CXCR4),+++,+ (30–60% reduction compared with wild-type CXCR4),+ (30–60% reduction compared with wild-type CXCR4),++ (10–29% reduction compared with wild-type CXCR4),+++,+++,++ (10–29% reduction compared with wild-type CXCR4)

# Reference: article PMC10987480, “Biological and mutational analyses of CXCR4–antagonist interactions and design of new antagonistic analogs” (Bioscience Reports, 2023)
